“And” between values parts separate entries of the source, which are not always exact repeats. Equal values may be shown once.
What was measured:
Experiment in all cases: Caliper, Mobility shift assay off-chip
[1] = molecular target: ALK (human) (UniProt Q9UM73)
[2] = molecular target: ALK EML4 (human) (UniProt Q9HC35+Q9UM73)
[3] = molecular target: AXL (human) (UniProt P30530)
[4] = molecular target: BRSK2 (human) (UniProt Q8IWQ3)
[5] = molecular target: CDK9 (human) (UniProt P50750)
[6] = molecular target: CLK1 (human) (UniProt P49759)
[7] = molecular target: CSNK1G3 (human) (UniProt Q9Y6M4)
Sequence of CSNK1G3 (human) (Q9Y6M4 whole entry, looked up): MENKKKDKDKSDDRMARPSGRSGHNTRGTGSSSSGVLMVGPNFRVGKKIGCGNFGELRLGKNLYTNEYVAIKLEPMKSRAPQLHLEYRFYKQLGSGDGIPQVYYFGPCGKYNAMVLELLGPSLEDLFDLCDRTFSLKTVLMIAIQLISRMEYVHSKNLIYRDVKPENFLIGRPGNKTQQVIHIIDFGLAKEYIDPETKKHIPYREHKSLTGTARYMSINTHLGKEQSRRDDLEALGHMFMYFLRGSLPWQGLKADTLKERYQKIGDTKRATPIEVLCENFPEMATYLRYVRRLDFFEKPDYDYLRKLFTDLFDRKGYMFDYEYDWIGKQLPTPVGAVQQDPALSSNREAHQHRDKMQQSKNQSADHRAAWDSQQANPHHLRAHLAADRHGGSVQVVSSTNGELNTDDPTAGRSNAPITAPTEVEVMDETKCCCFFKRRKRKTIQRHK

[8] = molecular target: DYRK2 (human) (UniProt Q92630)
[9] = molecular target: EPHA3 (human) (UniProt P29320)
[10] = molecular target: EPHA6 (human) (UniProt Q9UF33)
[11] = molecular target: FER (human) (UniProt P16591)
[12] = molecular target: HIPK1 (human) (UniProt Q86Z02)
[13] = molecular target: IKBKB (human) (UniProt O14920)
[14] = molecular target: INSR (human) (UniProt P06213)
[15] = molecular target: JAK2 JH1 JH2 (human) (UniProt O60674)
[16] = molecular target: JAK3 JH1 JH2 (human) (UniProt P52333)
[17] = molecular target: MAP4K2 (human) (UniProt Q12851)
[18] = molecular target: MAPK3 (human) (UniProt P27361)
[19] = molecular target: NUAK2 (human) (UniProt Q9H093)
[20] = molecular target: PAK3 (human) (UniProt O75914)
[21] = molecular target: PIM3 (human) (UniProt Q86V86)
[22] = molecular target: PLK3 (human) (UniProt Q9H4B4)
[23] = molecular target: PRKCB1 (human) (UniProt P05771)
Sequence of PRKCB1 (human) (P05771 whole entry, looked up): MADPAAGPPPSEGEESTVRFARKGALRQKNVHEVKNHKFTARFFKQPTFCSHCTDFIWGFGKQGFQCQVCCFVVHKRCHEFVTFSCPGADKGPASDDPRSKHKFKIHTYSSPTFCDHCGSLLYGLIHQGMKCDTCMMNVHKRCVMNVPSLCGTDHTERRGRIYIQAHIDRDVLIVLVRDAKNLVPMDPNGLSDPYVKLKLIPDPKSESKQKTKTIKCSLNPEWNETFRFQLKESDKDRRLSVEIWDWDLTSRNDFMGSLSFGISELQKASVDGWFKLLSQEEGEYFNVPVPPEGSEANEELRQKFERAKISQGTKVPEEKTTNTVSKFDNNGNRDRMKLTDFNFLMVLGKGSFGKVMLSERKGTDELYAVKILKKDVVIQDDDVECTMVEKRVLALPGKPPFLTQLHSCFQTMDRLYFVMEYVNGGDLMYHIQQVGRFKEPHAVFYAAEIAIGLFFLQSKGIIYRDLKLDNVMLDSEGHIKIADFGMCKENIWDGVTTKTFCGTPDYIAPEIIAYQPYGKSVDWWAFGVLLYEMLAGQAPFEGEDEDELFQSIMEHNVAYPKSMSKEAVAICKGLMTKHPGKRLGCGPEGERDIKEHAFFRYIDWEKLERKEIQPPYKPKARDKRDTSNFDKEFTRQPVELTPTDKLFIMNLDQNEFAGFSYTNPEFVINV

[24] = molecular target: ROS1 (human) (UniProt P08922); details: compound 0.2 µM
[25] = molecular target: RPS6KA1 KD1 KD2 (human) (UniProt Q15418)
[26] = molecular target: RPS6KA3 KD1 KD2 (human) (UniProt P51812)
[27] = molecular target: RPS6KA4 KD1 KD2 (human) (UniProt O75676)
[28] = molecular target: SGK3 (human) (UniProt Q96BR1)
Sequence of SGK3 (human) (Q96BR1 whole entry, looked up): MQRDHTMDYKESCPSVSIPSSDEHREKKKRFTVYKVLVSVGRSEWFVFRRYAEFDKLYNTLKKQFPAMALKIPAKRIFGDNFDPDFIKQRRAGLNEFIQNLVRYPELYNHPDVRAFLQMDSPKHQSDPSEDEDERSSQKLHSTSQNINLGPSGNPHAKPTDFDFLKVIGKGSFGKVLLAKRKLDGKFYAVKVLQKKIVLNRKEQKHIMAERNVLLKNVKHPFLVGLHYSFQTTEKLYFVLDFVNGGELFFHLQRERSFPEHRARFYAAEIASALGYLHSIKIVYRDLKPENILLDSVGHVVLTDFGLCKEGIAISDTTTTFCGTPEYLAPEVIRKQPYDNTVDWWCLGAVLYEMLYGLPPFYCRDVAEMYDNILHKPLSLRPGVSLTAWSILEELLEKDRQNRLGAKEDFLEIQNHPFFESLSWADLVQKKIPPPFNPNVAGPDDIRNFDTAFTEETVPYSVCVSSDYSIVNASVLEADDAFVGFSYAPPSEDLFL

[29] = molecular target: SPHK1 (human) (UniProt Q9NYA1)
[30] = molecular target: STK38L (human) (UniProt Q9Y2H1)
Sequence of STK38L (human) (Q9Y2H1 whole entry, looked up): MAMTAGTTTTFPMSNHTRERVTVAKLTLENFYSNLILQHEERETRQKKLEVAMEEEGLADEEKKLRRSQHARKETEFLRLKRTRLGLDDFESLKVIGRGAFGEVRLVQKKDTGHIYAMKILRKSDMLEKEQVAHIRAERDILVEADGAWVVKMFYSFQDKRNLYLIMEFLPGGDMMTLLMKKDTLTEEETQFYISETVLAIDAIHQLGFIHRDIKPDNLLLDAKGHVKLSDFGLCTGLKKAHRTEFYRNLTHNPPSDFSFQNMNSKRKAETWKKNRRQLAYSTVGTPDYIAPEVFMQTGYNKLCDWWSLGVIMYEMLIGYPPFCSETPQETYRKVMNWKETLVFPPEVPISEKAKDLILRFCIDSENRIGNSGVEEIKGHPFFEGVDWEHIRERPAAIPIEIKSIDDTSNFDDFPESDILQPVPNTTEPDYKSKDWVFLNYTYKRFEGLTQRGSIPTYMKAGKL

[31] = molecular target: TEK (human) (UniProt Q02763)
Sequence of TEK (human) (Q02763 whole entry, looked up): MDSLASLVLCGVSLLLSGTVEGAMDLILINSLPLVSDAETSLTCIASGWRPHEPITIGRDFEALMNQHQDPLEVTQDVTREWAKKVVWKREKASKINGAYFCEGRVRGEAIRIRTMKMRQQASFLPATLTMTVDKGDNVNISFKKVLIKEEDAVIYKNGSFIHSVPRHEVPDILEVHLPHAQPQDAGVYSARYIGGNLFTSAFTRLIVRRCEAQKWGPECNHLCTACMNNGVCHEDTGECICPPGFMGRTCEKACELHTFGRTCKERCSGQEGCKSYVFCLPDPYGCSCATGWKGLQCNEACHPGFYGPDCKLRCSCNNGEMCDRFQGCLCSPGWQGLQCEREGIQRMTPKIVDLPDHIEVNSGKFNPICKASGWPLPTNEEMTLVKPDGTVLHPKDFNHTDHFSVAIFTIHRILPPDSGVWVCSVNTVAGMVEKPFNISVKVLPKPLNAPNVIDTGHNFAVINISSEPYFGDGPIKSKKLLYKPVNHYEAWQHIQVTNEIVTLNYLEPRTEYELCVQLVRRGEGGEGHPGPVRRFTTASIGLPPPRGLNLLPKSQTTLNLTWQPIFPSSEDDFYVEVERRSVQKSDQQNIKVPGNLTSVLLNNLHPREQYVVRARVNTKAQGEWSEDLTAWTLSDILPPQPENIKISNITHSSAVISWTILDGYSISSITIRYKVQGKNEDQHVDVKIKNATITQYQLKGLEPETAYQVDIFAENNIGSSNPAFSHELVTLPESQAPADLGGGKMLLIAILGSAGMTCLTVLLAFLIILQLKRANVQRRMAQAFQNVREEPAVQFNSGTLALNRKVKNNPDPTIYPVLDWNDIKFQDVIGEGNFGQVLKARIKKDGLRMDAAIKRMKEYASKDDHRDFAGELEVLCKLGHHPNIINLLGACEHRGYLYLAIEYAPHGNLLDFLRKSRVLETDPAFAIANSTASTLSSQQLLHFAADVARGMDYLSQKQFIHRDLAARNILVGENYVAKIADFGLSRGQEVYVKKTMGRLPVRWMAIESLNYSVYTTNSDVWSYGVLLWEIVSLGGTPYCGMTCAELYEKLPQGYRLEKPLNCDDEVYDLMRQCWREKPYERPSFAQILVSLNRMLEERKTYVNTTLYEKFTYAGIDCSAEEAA

[32] = molecular target: TXK (human) (UniProt P42681)
Sequence of TXK (human) (P42681 whole entry, looked up): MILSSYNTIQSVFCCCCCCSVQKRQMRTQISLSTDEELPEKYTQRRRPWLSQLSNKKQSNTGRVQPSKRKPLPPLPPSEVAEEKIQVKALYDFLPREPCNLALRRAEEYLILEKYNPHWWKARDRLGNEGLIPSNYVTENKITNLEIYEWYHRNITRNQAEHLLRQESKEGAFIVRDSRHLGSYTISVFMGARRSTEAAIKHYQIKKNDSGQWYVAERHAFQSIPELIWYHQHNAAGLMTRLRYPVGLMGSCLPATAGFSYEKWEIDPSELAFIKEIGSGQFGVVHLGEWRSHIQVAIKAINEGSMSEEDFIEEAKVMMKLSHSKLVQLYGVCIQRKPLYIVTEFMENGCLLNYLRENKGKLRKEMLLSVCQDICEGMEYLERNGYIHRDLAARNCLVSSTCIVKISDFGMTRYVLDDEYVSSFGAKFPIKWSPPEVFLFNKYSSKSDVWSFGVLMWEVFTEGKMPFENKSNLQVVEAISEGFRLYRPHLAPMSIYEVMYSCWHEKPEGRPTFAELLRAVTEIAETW

[33] = molecular target: ZAP70 (human) (UniProt P43403)
Sequence of ZAP70 (human) (P43403 whole entry, looked up): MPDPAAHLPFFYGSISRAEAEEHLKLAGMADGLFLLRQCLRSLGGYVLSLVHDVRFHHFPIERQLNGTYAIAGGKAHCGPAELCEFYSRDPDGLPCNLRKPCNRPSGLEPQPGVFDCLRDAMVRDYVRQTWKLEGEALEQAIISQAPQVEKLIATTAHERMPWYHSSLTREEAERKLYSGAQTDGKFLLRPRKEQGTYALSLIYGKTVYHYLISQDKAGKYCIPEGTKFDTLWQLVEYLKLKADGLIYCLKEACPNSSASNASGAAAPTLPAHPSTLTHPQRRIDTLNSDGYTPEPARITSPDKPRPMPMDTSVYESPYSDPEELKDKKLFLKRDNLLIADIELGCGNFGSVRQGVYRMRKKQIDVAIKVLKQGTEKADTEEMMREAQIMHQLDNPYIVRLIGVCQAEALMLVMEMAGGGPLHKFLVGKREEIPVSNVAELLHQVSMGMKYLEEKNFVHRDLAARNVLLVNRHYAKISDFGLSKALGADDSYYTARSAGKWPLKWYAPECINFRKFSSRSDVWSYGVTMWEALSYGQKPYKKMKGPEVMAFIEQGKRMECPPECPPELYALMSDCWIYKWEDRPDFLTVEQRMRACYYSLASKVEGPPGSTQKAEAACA

`CNC(=O)c1cc(Oc2ccc(NC(=O)Nc3ccc(Cl)c(C(F)(F)F)c3)cc2)ccn1` gave an inhibition ([1]; compound 0.02 µM) of -3.3%, an inhibition ([1]; compound 0.2 µM) of 5.8% and an inhibition ([2]; compound 0.02 µM) of -6.5%. It also gave an inhibition ([2]; compound 0.2 µM) of 2.8%, an inhibition ([3]; compound 0.02 µM) of -7.4% and an inhibition ([3]; compound 0.2 µM) of 7.1%. The inhibition ([4]; compound 0.02 µM) was -1.1%, the inhibition ([4]; compound 0.2 µM) was -1.3% and the inhibition ([5]; compound 0.02 µM) was -7.5%. It also gave an inhibition ([5]; compound 0.2 µM) of -6.7%, an inhibition ([6]; compound 0.02 µM) of -7% and an inhibition ([6]; compound 0.2 µM) of 8.1%. The inhibition ([7]; compound 0.02 µM) was -1.4%, the inhibition ([7]; compound 0.2 µM) was -6.9% and the inhibition ([8]; compound 0.02 µM) was -7.8%. For the same compound, the inhibition ([8]; compound 0.2 µM) was 6.1%, the inhibition ([9]; compound 0.02 µM) was -2.6% and the inhibition ([9]; compound 0.2 µM) was 17%. The inhibition ([10]; compound 0.02 µM) was 16.5%, the inhibition ([10]; compound 0.2 µM) was 77.8% and the inhibition ([11]; compound 0.02 µM) was -1.8%. The inhibition ([11]; compound 0.2 µM) was 13.2%, the inhibition ([12]; compound 0.02 µM) was -1.4% and the inhibition ([12]; compound 0.2 µM) was 3.9%. The inhibition ([13]; compound 0.02 µM) was 0.9%, the inhibition ([13]; compound 0.2 µM) was 1.4% and the inhibition ([14]; compound 0.02 µM) was -8.9%. The inhibition ([14]; compound 0.2 µM) was 2.1%, the inhibition ([15]; compound 0.02 µM) was -3.6% and the inhibition ([15]; compound 0.2 µM) was 8.1%. For the same compound, the inhibition ([16]; compound 0.02 µM) was -3.6%, the inhibition ([16]; compound 0.2 µM) was 8.1% and the inhibition ([17]; compound 0.02 µM) was 3.2%. It also gave an inhibition ([17]; compound 0.2 µM) of 11.5%, an inhibition ([18]; compound 0.02 µM) of -2.3% and an inhibition ([18]; compound 0.2 µM) of -0.7%. For the same compound, the inhibition ([19]; compound 0.02 µM) was -6%, the inhibition ([19]; compound 0.2 µM) was 2.5% and the inhibition ([20]; compound 0.02 µM) was -1.4%. For the same compound, the inhibition ([20]; compound 0.2 µM) was 2.1%, the inhibition ([21]; compound 0.02 µM) was -1.8% and the inhibition ([21]; compound 0.2 µM) was -4.2%. The inhibition ([22]; compound 0.02 µM) was 4%, the inhibition ([22]; compound 0.2 µM) was 5.3% and the inhibition ([23]; compound 0.02 µM) was -0.2% and -0.6%. The inhibition ([23]; compound 0.2 µM) was 22% and 17.2%, the inhibition [24] was 1.3% and the inhibition ([25]; compound 0.02 µM) was -3.6%. For the same compound, the inhibition ([25]; compound 0.2 µM) was 3.1%, the inhibition ([26]; compound 0.02 µM) was -5% and the inhibition ([26]; compound 0.2 µM) was -5.9%. The inhibition ([27]; compound 0.02 µM) was -1.1%, the inhibition ([27]; compound 0.2 µM) was 2.6% and the inhibition ([28]; compound 0.02 µM) was 0.8%. For the same compound, the inhibition ([28]; compound 0.2 µM) was 10.7%, the inhibition ([29]; compound 0.02 µM) was -3.1% and the inhibition ([29]; compound 0.2 µM) was 3.2%. It also gave an inhibition ([30]; compound 0.02 µM) of -3.6%, an inhibition ([30]; compound 0.2 µM) of 4.2% and an inhibition ([31]; compound 0.02 µM) of -2.6%. It also gave an inhibition ([31]; compound 0.2 µM) of 9.5%, an inhibition ([32]; compound 0.02 µM) of -6.1% and an inhibition ([32]; compound 0.2 µM) of 5.8%. It also gave an inhibition ([33]; compound 0.02 µM) of -17.2% and an inhibition ([33]; compound 0.2 µM) of 19.1%.

— the kinase profiling compilation of Christmann-Franck et al. (2016)
